According to patent US20230210832A1, “METHODS FOR TREATING ALZHEIMER'S DISEASE” (priority 2020, published 2023):
Values after ≈ are worked out from the molar mass of the structure shown.

B1: Ang-2 peptide: human Ang-2 peptide (abcam; ab99482), Tie-2 receptor ligand (protein, UniProt O15123 19-496, looked up)
Angiopoietin-2: YNNFRKSMDSIGKKQYQVQHGSCSYTFLLPEMDNCRSSSSPYVSNAVQRDAPLEYDDSVQRLQVLENIMENNTQWLMKLENYIQDNMKKEMVEIQQNAVQNQTAVMIEIGTNLLNQTAEQTRKLTDVEAQVLNQTTRLELQLLEHSLSTNKLEKQILDQTSEINKLQDKNSFLEKKVLAMEDKHIIQLQSIKEEKDQLQVLVSKQNSIIEELEKKIVTATVNNSVLQKQQHDLMETVNNLLTMMSTSNSAKDPTVAKEEQISFRDCAEVFKSGHTTNGIYTLTFPNSTEEIKAYCDMEAGGGGWTIIQRREDGSVDFQRTWKEYKVGFGNPSGEYWLGNEFVSQLTNQQRYVLKIHLKDWEGNEAYSLYEHFYLSSEELNYRIHLKGLTGTAGKISSISQPGNDFSTKDGDNDKCICKCSQMLTGGWWFDACGPSNLNGMYYPQRQNTNKFNGIKWYYWKGSGYSLKATTMMIRPADF

Legend:
physchem = conditions: 100% DMSO, organic solvent or mixture
[1] = test system: Tg2576 AD model mice and WT (B6/SJL) littermates; experiment: Contextual fear conditioning; assay type: in vivo, mouse; conditions: 1-month treatment, mean±standard deviation
Protocol: Contextual Fear Conditioning: The apparatus consisted of a transparent chamber inside an enclosure with an opening in the ceiling to allow video recordings. The chamber consisted of a steel grid floor connected to a shock generator scrambler. The test encompassed two sessions: conditioning and a context test. On the conditioning day, the mice were individually placed in the chamber and allowed to explore freely for 5 minutes during which, at the 180th second, they received a foot shock of 0.50-0.80 mA for 3 seconds through the bars of the floor. 24 hours after conditioning, the mice were individually placed back in the chamber for 4 minutes, this time with no noxious stimuli. The mice were monitored for movement and freezing behaviour was recorded using computer software (Limelight, ActiMetrics, Wilmette, Ill., USA). Exclusion criteria were set for freezing events less than 2 seconds. This test was used to determine associative working memory. We explored the animal's ability to associate an environment with a noxious event that it experienced there. […] Freezing is a species-specific response to fear, which is defined as “the absence of movement except for respiration.” This may last for seconds to minutes depending on the strength of the aversive stimulus and whether the subject is able to recall the shock.

[2] = mice, 26 weeks of once daily oral gavage administration; cited from earlier work
[3] = test system: Human brain endothelial cells (HBEC-5i); experiment: Western blot of HBEC-5i cell lysates after peptide treatment; assay type: cell-based; conditions: 24 hrs, Aβ peptides 10 μM, Ang-2 200 ng/ml, VEGFA-165 100 ng/ml, vs PBS-treated cells
Protocol: Human brain endothelial cells, HBEC-5i (ATCC® CRL-3245™) were cultured on 0.1% gelatin coated tissue culture plates in DMEM-F12 media (Gibco; cat. #10565-018) supplemented by 10% heat-inactivated fetal bovine serum (FBS) (Gibco; cat. #A31607-01) and 40 μg/ml endothelial growth supplement (Sigma-Aldrich; cat. #E2759). Cells were grown until they reached 70% confluency and then used for experiments.
Cell culture: Human brain endothelial cells were grown in 10 cm tissue culture plates. […] After the treatment, the medium was removed, and cells were washed with PBS and then lysed with RIPA buffer that contained protease and phosphatase inhibitors. These cells were then used to analyze different proteins of interest.
Immunoblotting analysis and co-immunoprecipitation: For western blot analysis, the fractional homogenate samples were prepared with Dithiothreitol (DTT) in the sample buffer (100 mM Tris-Cl (pH 6.8), 4% (w/v) SDS, 0.2% (w/v) bromophenol blue, 20% (v/v) glycerol and 200 mM DTT). Homogenates were electrophoresed and immunoblotted with indicated antibodies. […] The proteins in the eluate were resolved on the acrylamide gel according to standard practices. […] The signal intensities were imaged by using the Odyssey infrared image system (LICOR), and relative levels of immunoreactivity were analyzed by the Image Studio Lite software.

[4] = test system: Tg2576 AD model mice and WT (B6/SJL) littermates; experiment: Spontaneous alternation (Y-maze); assay type: in vivo, mouse; conditions: drug-treated Tg2576 mice, 1-month treatment; mean±standard deviation
Protocol: Spontaneous alternation (Y-maze): The test for novelty exploration using spatial and working memory was conducted using a symmetrical Y-maze with a grey steel bottom plate and grey Perspex® walls (Stoelting Co, Wood Dale, Ill.). Each arm of the Y-maze was 35 cm long, 5 cm wide, and 10 cm high, and the wall at the end of each arm was identified by a different colour: white, blue or red. The spatial acquisition phase comprised a one-day trial with the mice tracked while moving freely through the three arms of the Y maze during an 8-minute session. The movements were tracked by a computer tracking system (ANY-maze, Stoelting). The performance was gauged by the percentage of alternations that was calculated as the total number of alternations×100/(total number of arm entries−2). Alternation was defined as successive entries into the three arms on overlapping triplet sets. A high percentage of alternation was indicative of sustained cognition, as the animals must remember which arm was entered last to avoid re-entering it.

Molecule	solubility (physchem)	freezing percentage ([1]; drug-treated Tg2576 mice)	freezing percentage ([1]; drug-treated WT (B6/SJL) mice)	no-observed-adverse-effect-levels (NOAELs) [2]	expression of VEGFR2 [3]	percentage of alternation [4]
CNC(=O)c1ccccc1Sc1ccc2c(/C=C/c3ccccn3)n[nH]c2c1 [Axitinib]	40 mg/mL (≈ 103 mM)	14.4±7.3%	17.74±14.4%	< 10 mg/kg/day	–	–
Aβ1-42 peptide: Aβ1-42 peptide (NovoPrep synthetic peptide), predominantly found in plaques	–	–	–	–	did not exert a similar effect	–
CCN(CC)CCNC(=O)c1c(C)[nH]c(/C=C2\C(=O)Nc3ccc(F)cc32)c1C [Sunitinib]	30 mg/mL (≈ 75.3 mM)	10.9±5.8%	25.4±19.4%	–	–	49.3±12.1%
B1	–	–	–	–	slight increase	–
